According to patent publication US7504422B2, “Polyamine compounds” (Taigen Biotechnology Co. Ltd., priority 2003, dated 2009):

B1: G-CSF: granulocyte-colony stimulating factor; growth factor for stem cells and EPCs currently used in clinics (protein, UniProt P09919 31-207, looked up)
Granulocyte …: TPLGPASSLPQSFLLKCLEQVRKIQGDGAALQEKLVSECATYKLCHPEELVLLGHSLGIPWAPLSSCPSQALQLAGCLSQLHSGLFLYQGLLQALEGISPELGPTLDTLQLDVADFATTIWQQMEELGMAPALQPTQGAMPAFASAFQRRAGGVLVASHLQSFLEVSYRVLRHLAQP

Key:
[1] = system: hematopoietic stem cells CD34+ and EPCs CD133+; assay: Stem cell and endothelial progenitor cell mobilization into peripheral blood; assay type: in vivo, BALB/c mice; details: for Fold increase at 1 mg/Kg, CD34+ / Fold increase at Maximum Tolerated Dose (MTD), CD34+: CD34+ cells in circulation; for Fold increase at 1 mg/Kg, CD34+ / Fold increase at Maximum Tolerated Dose (MTD), CD34+ / Fold increase at 1 mg/Kg, CD133+ / Fold increase at Maximum Tolerated Dose (MTD), CD133+: mice; for Fold increase at Maximum Tolerated Dose (MTD), CD34+ / Fold increase at Maximum Tolerated Dose (MTD), CD133+: MTD (125: 15 mg/kg, 136: 30 mg/Kg); for Fold increase at 1 mg/Kg, CD133+ / Fold increase at Maximum Tolerated Dose (MTD), CD133+: CD133+ cells in circulation; for Fold increase in circulation, CD34+ / Fold increase in circulation, CD133+: Table 2, 125 at 15 mg/Kg, G-CSF at 50 ug/kg/d × 4, alone or combined; for mobilization of hematopoietic stem cells CD34+ and EPCs CD133+ into peripheral blood: animal studies
Procedure: The in vivo efficacy of these two compounds in mobilizing stem cells was tested in male Special Pathogens Free (SPF) BALB/c mice. Different concentrations of a compound solution were prepared and administrated either intravenously of intramuscularly into mice. Mice receiving saline were used as a control. Whole blood was collected at 3 hours after i.v. injection or 6 hours after i.m. injection by cardiac puncture. Total leukocytes were resuspended in PBS and cell numbers were counted using trypan blue exclusion. Cells numbers were adjusted to 6×10^4 in 0.1 mL PBS for antibody staining. CXCR4^+ cells, CD34^+ cells, and CD133^+ cells were counted using surface staining and flow cytometry analysis. Data represents mean ±SEM of four independent experiments. Levels of cell number in different groups were compared using One-way ANOVA, differences were considered significant if P values were <0.05.

Maximum Tolerated Dose = details: male, BALB/c, mouse, in vivo, intravenous; mice

Row | Molecule | Fold increase at 1 mg/Kg, CD34+ [1] [fold] | Fold increase at Maximum Tolerated Dose (MTD), CD34+ [1] [fold] | Fold increase at 1 mg/Kg, CD133+ [1] [fold] | Fold increase at Maximum Tolerated Dose (MTD), CD133+ [1] [fold] | Fold increase in circulation, CD34+ [1] [fold] | Fold increase in circulation, CD133+ [1] [fold] | mobilization of hematopoietic stem cells CD34+ and EPCs CD133+ into peripheral blood [1] | MTD (Maximum Tolerated Dose) [mg/kg]
1 | c1ccc(CNCCN(CCNCc2ccccn2)Cc2ccc(CNCc3nc4ccccc4[nH]3)cc2)nc1 [Compound 125, N-(4-{[(1H-benzoimidazol-2-ylmethyl)-amino]-methyl}-benzyl)-N′-pyridin-2-ylmethyl-N-{2-[(pyridin-2-ylmethyl)-amino]-ethyl}-ethane-1,2-diamine] | 3.99 | 6.58 | 2.24 | 5.77 | 7.1 | 6.0 | rapidly mobilized | 15
2 | COc1ccc2[nH]c(CNCc3ccc(CN(CCNCc4ccccn4)CCNCc4ccccn4)cc3)nc2c1 [Compound 136, N1-(4-(((5-methoxy-1H-benzo[d]imidazol-2-yl)methylamino)methyl)benzyl)-N2-(pyridin-2-ylmethyl)-N1-(2-(pyridin-2-ylmethylamino)-ethyl)ethane-1,2-diamine] | 2.63 | 5.66 | 3.17 | 8.49 | – | – | rapidly mobilized | 30
3 | B1 | – | – | – | – | 8.4 | 26.2 | – | –
